According to the kinase profiling compilation of Christmann-Franck et al. (2016):

What was measured:
Test in all cases: Caliper, Mobility shift assay off-chip
[1] = biological target: BRSK1 (human) (UniProt Q8TDC3)
[2] = biological target: CAMK2D (human) (UniProt Q13557)
[3] = biological target: CDK3 (human) (UniProt Q00526)
[4] = biological target: CSNK1A1 (human) (UniProt P48729)
[5] = biological target: DCLK2 (human) (UniProt Q8N568)
[6] = biological target: DYRK3 (human) (UniProt O43781)
[7] = biological target: EPHB1 (human) (UniProt P54762)
[8] = biological target: ERBB4 (human) (UniProt Q15303)
ERBB4 (human), sequence (Q15303 whole entry, looked up): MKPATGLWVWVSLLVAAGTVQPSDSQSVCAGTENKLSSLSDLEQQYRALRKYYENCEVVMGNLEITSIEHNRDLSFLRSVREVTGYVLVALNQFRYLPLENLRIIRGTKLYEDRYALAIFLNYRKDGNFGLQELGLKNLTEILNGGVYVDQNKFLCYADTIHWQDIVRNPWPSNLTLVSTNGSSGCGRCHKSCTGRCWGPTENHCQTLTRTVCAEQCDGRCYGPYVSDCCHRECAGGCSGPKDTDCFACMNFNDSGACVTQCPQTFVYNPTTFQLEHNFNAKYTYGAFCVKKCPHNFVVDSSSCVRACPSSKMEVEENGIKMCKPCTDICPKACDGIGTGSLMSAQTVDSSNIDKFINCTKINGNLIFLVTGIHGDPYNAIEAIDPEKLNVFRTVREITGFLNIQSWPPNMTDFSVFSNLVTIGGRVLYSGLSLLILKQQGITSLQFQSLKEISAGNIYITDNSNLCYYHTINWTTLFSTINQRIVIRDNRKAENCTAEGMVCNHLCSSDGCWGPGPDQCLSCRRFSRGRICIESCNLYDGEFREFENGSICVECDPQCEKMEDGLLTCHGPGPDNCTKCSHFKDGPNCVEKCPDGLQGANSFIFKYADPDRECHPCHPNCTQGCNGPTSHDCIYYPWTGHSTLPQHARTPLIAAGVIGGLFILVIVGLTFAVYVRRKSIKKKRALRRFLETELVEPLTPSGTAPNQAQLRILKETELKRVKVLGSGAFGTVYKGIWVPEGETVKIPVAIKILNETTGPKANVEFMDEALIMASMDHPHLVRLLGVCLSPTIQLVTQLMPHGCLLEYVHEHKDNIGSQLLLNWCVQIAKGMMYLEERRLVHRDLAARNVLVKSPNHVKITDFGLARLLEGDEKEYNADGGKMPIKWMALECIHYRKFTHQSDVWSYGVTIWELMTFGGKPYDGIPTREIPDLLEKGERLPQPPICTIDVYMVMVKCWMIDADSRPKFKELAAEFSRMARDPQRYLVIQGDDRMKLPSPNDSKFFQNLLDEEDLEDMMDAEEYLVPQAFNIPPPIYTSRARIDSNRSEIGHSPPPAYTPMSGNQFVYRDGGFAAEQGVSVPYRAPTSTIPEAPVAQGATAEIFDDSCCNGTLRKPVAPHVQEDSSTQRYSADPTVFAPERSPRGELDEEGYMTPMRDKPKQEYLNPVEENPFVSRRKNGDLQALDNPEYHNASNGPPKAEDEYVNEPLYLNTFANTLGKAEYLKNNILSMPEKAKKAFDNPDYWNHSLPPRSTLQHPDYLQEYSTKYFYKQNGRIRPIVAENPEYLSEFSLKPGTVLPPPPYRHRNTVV

[9] = biological target: FLT1 (human) (UniProt P17948)
[10] = biological target: FYN (human) (UniProt P06241)
[11] = biological target: MAPK14 (human) (UniProt Q16539)
[12] = biological target: MAPKAPK3 (human) (UniProt Q16644)
MAPKAPK3 (human), sequence (Q16644 whole entry, looked up): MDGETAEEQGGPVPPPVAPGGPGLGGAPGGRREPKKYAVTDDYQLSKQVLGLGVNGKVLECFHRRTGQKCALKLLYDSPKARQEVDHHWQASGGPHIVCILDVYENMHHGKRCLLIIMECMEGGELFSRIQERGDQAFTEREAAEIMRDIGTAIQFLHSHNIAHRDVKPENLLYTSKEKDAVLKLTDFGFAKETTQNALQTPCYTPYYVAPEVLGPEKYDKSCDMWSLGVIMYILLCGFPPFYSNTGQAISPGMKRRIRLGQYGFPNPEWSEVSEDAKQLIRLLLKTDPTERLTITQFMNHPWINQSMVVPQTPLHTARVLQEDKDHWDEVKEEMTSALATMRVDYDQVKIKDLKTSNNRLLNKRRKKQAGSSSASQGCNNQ

[13] = biological target: MINK1 (human) (UniProt Q8N4C8)
[14] = biological target: PDPK1 (human) (UniProt O15530)
[15] = biological target: PRKACB (human) (UniProt P22694)
[16] = biological target: PRKCE (human) (UniProt Q02156)
[17] = biological target: PRKCZ (human) (UniProt Q05513)
[18] = biological target: RPS6KA3 KD1 KD2 (human) (UniProt P51812)
[19] = biological target: RPS6KB1 (human) (UniProt P23443)
RPS6KB1 (human), sequence (P23443 whole entry, looked up): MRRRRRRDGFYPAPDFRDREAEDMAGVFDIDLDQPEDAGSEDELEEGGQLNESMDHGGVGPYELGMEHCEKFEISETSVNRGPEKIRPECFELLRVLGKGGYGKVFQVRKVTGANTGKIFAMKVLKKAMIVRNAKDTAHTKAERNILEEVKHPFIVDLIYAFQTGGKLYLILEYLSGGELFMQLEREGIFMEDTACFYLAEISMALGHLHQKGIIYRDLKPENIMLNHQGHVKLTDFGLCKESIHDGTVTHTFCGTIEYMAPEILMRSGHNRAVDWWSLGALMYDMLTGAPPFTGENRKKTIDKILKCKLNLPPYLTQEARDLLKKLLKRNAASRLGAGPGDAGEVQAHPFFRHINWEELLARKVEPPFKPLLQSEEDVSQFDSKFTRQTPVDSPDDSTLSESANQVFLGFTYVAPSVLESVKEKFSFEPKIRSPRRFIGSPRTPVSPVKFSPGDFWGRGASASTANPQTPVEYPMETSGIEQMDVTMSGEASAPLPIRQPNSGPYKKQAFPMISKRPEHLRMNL

[20] = biological target: SGK2 (human) (UniProt Q9HBY8)
SGK2 (human), sequence (Q9HBY8 whole entry, looked up): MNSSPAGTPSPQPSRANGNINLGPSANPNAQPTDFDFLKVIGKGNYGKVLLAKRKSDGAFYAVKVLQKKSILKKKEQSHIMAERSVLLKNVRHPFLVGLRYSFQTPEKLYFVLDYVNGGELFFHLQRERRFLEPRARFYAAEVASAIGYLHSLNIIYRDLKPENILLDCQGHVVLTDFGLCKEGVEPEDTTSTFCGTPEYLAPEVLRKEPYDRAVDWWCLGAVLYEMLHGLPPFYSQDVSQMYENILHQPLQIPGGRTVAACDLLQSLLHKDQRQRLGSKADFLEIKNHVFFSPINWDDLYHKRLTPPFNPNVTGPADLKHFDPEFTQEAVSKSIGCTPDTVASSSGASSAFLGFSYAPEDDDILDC

[21] = biological target: SGK3 (human) (UniProt Q96BR1)
[22] = biological target: SLK (human) (UniProt Q9H2G2)
SLK (human), sequence (Q9H2G2 whole entry, looked up): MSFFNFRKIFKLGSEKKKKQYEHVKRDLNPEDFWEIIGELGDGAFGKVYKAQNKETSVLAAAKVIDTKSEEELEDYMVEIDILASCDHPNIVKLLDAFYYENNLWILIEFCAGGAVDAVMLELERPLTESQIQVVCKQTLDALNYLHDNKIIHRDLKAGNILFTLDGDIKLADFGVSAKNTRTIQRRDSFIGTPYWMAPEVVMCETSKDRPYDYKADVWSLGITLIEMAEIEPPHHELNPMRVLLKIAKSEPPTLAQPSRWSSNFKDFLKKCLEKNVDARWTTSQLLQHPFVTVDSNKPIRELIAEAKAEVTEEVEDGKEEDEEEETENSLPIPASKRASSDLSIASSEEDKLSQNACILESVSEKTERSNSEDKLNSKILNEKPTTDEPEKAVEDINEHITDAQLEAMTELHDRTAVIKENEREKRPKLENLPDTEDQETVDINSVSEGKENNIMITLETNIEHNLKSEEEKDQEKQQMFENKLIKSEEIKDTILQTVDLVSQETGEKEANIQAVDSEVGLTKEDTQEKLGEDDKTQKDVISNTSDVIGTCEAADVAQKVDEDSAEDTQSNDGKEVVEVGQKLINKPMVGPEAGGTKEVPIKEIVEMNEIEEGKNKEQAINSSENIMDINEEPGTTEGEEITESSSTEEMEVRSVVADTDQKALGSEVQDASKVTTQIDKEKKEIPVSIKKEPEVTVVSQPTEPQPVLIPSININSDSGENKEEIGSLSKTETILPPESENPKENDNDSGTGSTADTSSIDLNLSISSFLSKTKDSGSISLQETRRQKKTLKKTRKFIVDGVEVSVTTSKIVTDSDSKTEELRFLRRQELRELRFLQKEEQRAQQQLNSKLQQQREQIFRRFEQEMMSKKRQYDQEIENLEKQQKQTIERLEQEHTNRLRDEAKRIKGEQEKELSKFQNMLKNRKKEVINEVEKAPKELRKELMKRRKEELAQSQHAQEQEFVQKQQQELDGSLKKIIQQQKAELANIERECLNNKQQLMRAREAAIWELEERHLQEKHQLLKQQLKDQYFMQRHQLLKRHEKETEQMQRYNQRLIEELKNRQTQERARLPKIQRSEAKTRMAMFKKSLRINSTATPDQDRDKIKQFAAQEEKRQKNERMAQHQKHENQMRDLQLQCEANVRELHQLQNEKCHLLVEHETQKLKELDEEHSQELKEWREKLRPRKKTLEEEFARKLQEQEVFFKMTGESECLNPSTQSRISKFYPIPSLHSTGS

[23] = biological target: SRMS (human) (UniProt Q9H3Y6)
[24] = biological target: SRPK3 (human) (UniProt Q9UPE1)
[25] = biological target: STK38 (human) (UniProt Q15208)
STK38 (human), sequence (Q15208 whole entry, looked up): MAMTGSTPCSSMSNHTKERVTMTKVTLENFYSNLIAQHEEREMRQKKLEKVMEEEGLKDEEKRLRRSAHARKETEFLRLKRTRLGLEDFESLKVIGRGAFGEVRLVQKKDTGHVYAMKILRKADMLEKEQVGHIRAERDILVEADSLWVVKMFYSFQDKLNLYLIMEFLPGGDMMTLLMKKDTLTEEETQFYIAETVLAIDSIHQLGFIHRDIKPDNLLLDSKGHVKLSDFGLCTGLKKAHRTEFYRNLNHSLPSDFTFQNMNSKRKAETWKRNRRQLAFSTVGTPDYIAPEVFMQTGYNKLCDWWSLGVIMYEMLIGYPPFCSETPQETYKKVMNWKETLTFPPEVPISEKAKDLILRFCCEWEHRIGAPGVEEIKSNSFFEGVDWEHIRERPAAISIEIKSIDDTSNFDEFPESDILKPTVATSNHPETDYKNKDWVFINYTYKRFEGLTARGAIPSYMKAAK

[26] = biological target: STK4 (human) (UniProt Q13043)
[27] = biological target: TAB1 (human) (UniProt Q15750)
[28] = biological target: TNK1 (human) (UniProt Q13470)
[29] = biological target: TSSK3 (human) (UniProt Q96PN8)
TSSK3 (human), sequence (Q96PN8 whole entry, looked up): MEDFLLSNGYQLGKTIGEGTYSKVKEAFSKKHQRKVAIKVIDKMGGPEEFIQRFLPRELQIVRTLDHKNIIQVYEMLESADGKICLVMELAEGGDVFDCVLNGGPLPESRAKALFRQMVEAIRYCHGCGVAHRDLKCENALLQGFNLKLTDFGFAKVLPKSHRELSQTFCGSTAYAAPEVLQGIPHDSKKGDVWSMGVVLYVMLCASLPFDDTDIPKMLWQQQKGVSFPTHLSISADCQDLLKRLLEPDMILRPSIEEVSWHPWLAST

[30] = biological target: TYK2 JH1 JH2 (human) (UniProt P29597)
[31] = biological target: WNK1 (human) (UniProt Q9H4A3)
[32] = biological target: WNK2 (human) (UniProt Q9Y3S1)
[33] = biological target: AURKB (human) (UniProt Q96GD4)

CDK3 (human), sequence (Q00526 whole entry, looked up): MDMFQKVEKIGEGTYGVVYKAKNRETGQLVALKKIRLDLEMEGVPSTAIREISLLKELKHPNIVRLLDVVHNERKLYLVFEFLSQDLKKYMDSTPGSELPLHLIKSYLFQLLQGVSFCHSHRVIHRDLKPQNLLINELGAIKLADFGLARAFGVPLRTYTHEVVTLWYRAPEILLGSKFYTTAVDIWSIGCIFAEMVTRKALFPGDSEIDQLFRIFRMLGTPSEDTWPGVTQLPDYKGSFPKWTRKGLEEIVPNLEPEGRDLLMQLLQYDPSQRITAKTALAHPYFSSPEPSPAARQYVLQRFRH

CNC(=O)c1cc(Oc2ccc(NC(=O)Nc3ccc(Cl)c(C(F)(F)F)c3)cc2)ccn1 showed an inhibition ([1]; compound 0.02 µM) of -2.6%, an inhibition ([1]; compound 0.2 µM) of -6% and an inhibition ([2]; compound 0.2 µM) of 5.2%. It also gave an inhibition ([3]; compound 0.02 µM) of -4.1%, an inhibition ([3]; compound 0.2 µM) of -2.4% and an inhibition ([4]; compound 0.02 µM) of -4.6%. It also gave an inhibition ([4]; compound 0.2 µM) of -2.9%, an inhibition ([5]; compound 0.02 µM) of -2.7% and an inhibition ([5]; compound 0.2 µM) of -1%. The inhibition ([6]; compound 0.02 µM) was -5.8%, the inhibition ([6]; compound 0.2 µM) was 2.1% and the inhibition ([7]; compound 0.02 µM) was -1.8%. It also gave an inhibition ([7]; compound 0.2 µM) of 8.5%, an inhibition ([8]; compound 0.02 µM) of -0.4% and an inhibition ([8]; compound 0.2 µM) of 10.4%. For the same compound, the inhibition ([9]; compound 0.02 µM) was 49.3%, the inhibition ([9]; compound 0.2 µM) was 99.6% and the inhibition ([10]; compound 0.02 µM) was -2.5%. For the same compound, the inhibition ([10]; compound 0.2 µM) was 14.5%, the inhibition ([11]; compound 0.2 µM) was 63.8% and the inhibition ([12]; compound 0.02 µM) was -6.2%. It also gave an inhibition ([12]; compound 0.2 µM) of 3.5%, an inhibition ([13]; compound 0.02 µM) of -3.3% and an inhibition ([13]; compound 0.2 µM) of 4.1%. The inhibition ([14]; compound 0.02 µM) was -1%, the inhibition ([14]; compound 0.2 µM) was 0.9% and the inhibition ([15]; compound 0.02 µM) was -7.7%. It also gave an inhibition ([15]; compound 0.2 µM) of 3.1%, an inhibition ([16]; compound 0.02 µM) of 0.4% and an inhibition ([16]; compound 0.2 µM) of 6%. The inhibition ([17]; compound 0.02 µM) was 0%, the inhibition ([17]; compound 0.2 µM) was 11.3% and the inhibition ([18]; compound 0.02 µM) was -5%. For the same compound, the inhibition ([18]; compound 0.2 µM) was -5.9%, the inhibition ([19]; compound 0.02 µM) was 8.1% and the inhibition ([19]; compound 0.2 µM) was 48.1%. The inhibition ([20]; compound 0.02 µM) was -0.9%, the inhibition ([20]; compound 0.2 µM) was 8.4% and the inhibition ([21]; compound 0.02 µM) was 0.8%. For the same compound, the inhibition ([21]; compound 0.2 µM) was 10.7%, the inhibition ([22]; compound 0.02 µM) was 1% and the inhibition ([22]; compound 0.2 µM) was 10.6%. For the same compound, the inhibition ([23]; compound 0.02 µM) was -0.4%, the inhibition ([23]; compound 0.2 µM) was 4.1% and the inhibition ([24]; compound 0.02 µM) was -0.5%. The inhibition ([24]; compound 0.2 µM) was 7.9%, the inhibition ([25]; compound 0.02 µM) was -2.5% and the inhibition ([25]; compound 0.2 µM) was 4.8%. For the same compound, the inhibition ([26]; compound 0.02 µM) was -5.1%, the inhibition ([26]; compound 0.2 µM) was -3.5% and the inhibition ([27]; compound 0.02 µM) was 4.8%. The inhibition ([27]; compound 0.2 µM) was 14.3%, the inhibition ([28]; compound 0.02 µM) was -0.4% and the inhibition ([28]; compound 0.2 µM) was 19%. The inhibition ([29]; compound 0.02 µM) was 2.7%, the inhibition ([29]; compound 0.2 µM) was 8.3% and the inhibition ([30]; compound 0.02 µM) was -2.4%. The inhibition ([31]; compound 0.02 µM) was -4.5%, the inhibition ([31]; compound 0.2 µM) was 6.3% and the inhibition ([32]; compound 0.02 µM) was -8.6%. The inhibition ([32]; compound 0.2 µM) was 3.6%.

CCN(CC)CCNC(=O)c1c(C)[nH]c(/C=C2\C(=O)Nc3ccc(F)cc32)c1C gave an inhibition ([33]; compound 0.2 µM) of 46%, an inhibition ([33]; compound 4.0 µM) of 90% and an inhibition ([1]; compound 0.2 µM) of 40%. For the same compound, the inhibition ([1]; compound 4.0 µM) was 86.6%, the inhibition ([2]; compound 0.2 µM) was 88.8% and the inhibition ([2]; compound 4.0 µM) was 100%. The inhibition ([3]; compound 0.2 µM) was 0.3%, the inhibition ([3]; compound 4.0 µM) was 36.6% and the inhibition ([5]; compound 0.2 µM) was 5.2%. The inhibition ([5]; compound 4.0 µM) was 49.8%, the inhibition ([6]; compound 0.2 µM) was 24.4% and the inhibition ([6]; compound 4.0 µM) was 81.9%. The inhibition ([7]; compound 0.2 µM) was 34.5%, the inhibition ([7]; compound 4.0 µM) was 89% and the inhibition ([8]; compound 0.2 µM) was -0.9%. The inhibition ([8]; compound 4.0 µM) was 33.9%, the inhibition ([9]; compound 0.2 µM) was 90.4% and the inhibition ([9]; compound 4.0 µM) was 103%. For the same compound, the inhibition ([10]; compound 0.2 µM) was 45.3%, the inhibition ([10]; compound 4.0 µM) was 93.3% and the inhibition ([11]; compound 0.2 µM) was -6.9%. It also gave an inhibition ([11]; compound 4.0 µM) of -20.4%, an inhibition ([12]; compound 0.2 µM) of 1.2% and an inhibition ([12]; compound 4.0 µM) of 3.2%. It also gave an inhibition ([13]; compound 0.2 µM) of 56.6%, an inhibition ([13]; compound 4.0 µM) of 99.7% and an inhibition ([14]; compound 0.2 µM) of -0.3%. The inhibition ([14]; compound 4.0 µM) was 36.5%, the inhibition ([15]; compound 0.2 µM) was -0.1% and the inhibition ([15]; compound 4.0 µM) was 48.3%. For the same compound, the inhibition ([16]; compound 0.2 µM) was 4.4%, the inhibition ([16]; compound 4.0 µM) was 11% and the inhibition ([17]; compound 0.2 µM) was -1.5%. The inhibition ([17]; compound 4.0 µM) was 13.5%, the inhibition ([18]; compound 0.2 µM) was 61.7% and the inhibition ([19]; compound 0.2 µM) was 66.4%. It also gave an inhibition ([19]; compound 4.0 µM) of 96.6%, an inhibition ([20]; compound 0.2 µM) of 5.5% and an inhibition ([20]; compound 4.0 µM) of 57.6%. For the same compound, the inhibition ([21]; compound 4.0 µM) was 20.6%, the inhibition ([22]; compound 0.2 µM) was 78.3% and the inhibition ([23]; compound 0.2 µM) was -0.6%. The inhibition ([23]; compound 4.0 µM) was 24%, the inhibition ([24]; compound 0.2 µM) was 1.1% and the inhibition ([24]; compound 4.0 µM) was 5.1%. The inhibition ([25]; compound 0.2 µM) was 8.9%, the inhibition ([25]; compound 4.0 µM) was 45.1% and the inhibition ([26]; compound 0.2 µM) was 92.8%. The inhibition ([26]; compound 4.0 µM) was 103%, the inhibition ([27]; compound 0.2 µM) was 83.7% and the inhibition ([27]; compound 4.0 µM) was 101%. It also gave an inhibition ([28]; compound 0.2 µM) of 32.1%, an inhibition ([28]; compound 4.0 µM) of 88.4% and an inhibition ([29]; compound 0.2 µM) of 2.6%. For the same compound, the inhibition ([29]; compound 4.0 µM) was -1.3%, the inhibition ([30]; compound 0.2 µM) was 21.6% and the inhibition ([30]; compound 4.0 µM) was 78.3%. For the same compound, the inhibition ([31]; compound 0.2 µM) was 3.2%, the inhibition ([31]; compound 4.0 µM) was 4.9% and the inhibition ([32]; compound 0.2 µM) was 1.7%. The inhibition ([32]; compound 4.0 µM) was -2.1%.
